The supplement of paper PMC13380429

Assays:
Settings in all cases: 72 h
Caco-2 [1] = assay: cell viability relative to DMSO; higher = less toxic
HepG2 [2] = assay: as above
U2OS [3] = assay: as above
Vero E6 [4] = assay: as above
Caco-2 [5] = assay: relative viability EC50 (midpoint between 100% and the lowest measured viability); higher = less toxic
HepG2 [6] = assay: as above
U2OS [7] = assay: as above
Vero E6 [8] = assay: as above
Caco-2 [9] = assay: drug sensitivity score (DSS) for viability; higher = more toxic; extreme values may be limits of the assay
HepG2 [10] = assay: as above
U2OS [11] = assay: as above
Vero E6 [12] = assay: as above
Calu-3 [13] = assay: relative viability EC50 (midpoint between 100% and the lowest measured viability); higher = less toxic
Calu-3 [14] = assay: drug sensitivity score (DSS) for viability; higher = more toxic; extreme values may be limits of the assay
Calu-3 [15] = assay: cell viability relative to DMSO; higher = less toxic

| Compound | cell viability (Caco-2 [1]; 1 nM) | cell viability (Caco-2 [1]; 10 nM) | cell viability (Caco-2 [1]; 100 nM) | cell viability (Caco-2 [1]; 1000 nM) | cell viability (Caco-2 [1]; 10000 nM) | cell viability (HepG2 [2]; 1 nM) | cell viability (HepG2 [2]; 10 nM) | cell viability (HepG2 [2]; 100 nM) | cell viability (HepG2 [2]; 1000 nM) | cell viability (HepG2 [2]; 10000 nM) | cell viability (U2OS [3]; 1 nM) | cell viability (U2OS [3]; 10 nM) | cell viability (U2OS [3]; 100 nM) | cell viability (U2OS [3]; 1000 nM) | cell viability (U2OS [3]; 10000 nM) | cell viability (Vero E6 [4]; 1 nM) | cell viability (Vero E6 [4]; 10 nM) | cell viability (Vero E6 [4]; 100 nM) | cell viability (Vero E6 [4]; 1000 nM) | cell viability (Vero E6 [4]; 10000 nM) | relative viability EC50 (Caco-2 [5]) | relative viability EC50 (HepG2 [6]) | relative viability EC50 (U2OS [7]) | relative viability EC50 (Vero E6 [8]) | drug sensitivity score (Caco-2 [9]) | drug sensitivity score (HepG2 [10]) | drug sensitivity score (U2OS [11]) | drug sensitivity score (Vero E6 [12]) | relative viability EC50 (Calu-3 [13]) | drug sensitivity score (Calu-3 [14]) | cell viability (Calu-3 [15]; 1 nM) | cell viability (Calu-3 [15]; 10 nM) | cell viability (Calu-3 [15]; 100 nM) | cell viability (Calu-3 [15]; 1000 nM) | cell viability (Calu-3 [15]; 10000 nM) |
| --- | --- | --- | --- | --- | --- | --- | --- | --- | --- | --- | --- | --- | --- | --- | --- | --- | --- | --- | --- | --- | --- | --- | --- | --- | --- | --- | --- | --- | --- | --- | --- | --- | --- | --- | --- |
| O=P1(N(CCCl)CCCl)NCCCO1 (centres undefined) [cyclophosphamide] | 100% | 100% | 95.6% | 86.7% | 98.6% | 91.9% | 98.9% | 91.5% | 99.8% | 105% | 102% | 102% | 101% | 95.5% | 99.2% | 97.6% | 99.8% | 99.4% | 98.2% | 94% | > 10 µM | > 10 µM | > 10 µM | > 10 µM | 0 | 0 | 0 | 0 | – | – | – | – | – | – | – |
| CNc1cc2[nH]c(=O)n(-c3ccc(NC(=O)NS(=O)(=O)c4ccc(Cl)s4)cc3)c(=O)c2cc1F [elinogrel] | 95.7% | 103% | 97.2% | 98.3% | 101% | 100% | 91.4% | 89.7% | 94.1% | 99.8% | 95.6% | 101% | 100% | 103% | 104% | 94.6% | 95.2% | 95.2% | 95.3% | 100% | > 10 µM | > 10 µM | > 10 µM | > 10 µM | 0 | 0 | 0 | 0 | – | – | – | – | – | – | – |
| CON [methoxyamine] | 102% | 102% | 99.9% | 96.9% | 100% | 110% | 110% | 102% | 99.7% | 96.8% | 99.2% | 103% | 96.7% | 103% | 96.4% | 108% | 94.6% | 99.3% | 106% | 106% | > 10 µM | > 10 µM | > 10 µM | > 10 µM | 0 | 0 | 0 | 0 | – | – | – | – | – | – | – |
| COc1ccc2cc([C@H](C)C(=O)O)ccc2c1 [naproxen] | 95.1% | 101% | 102% | 94.9% | 95.3% | 106% | 103% | 104% | 100% | 99.4% | 101% | 102% | 98.4% | 96.8% | 102% | 109% | 97.8% | 98.2% | 101% | 100% | > 10 µM | > 10 µM | > 10 µM | > 10 µM | 0 | 0 | 0 | 0 | > 10000 nM | 0 | – | – | – | – | – |
| O=C(O)CCCNC(=O)c1cccnc1 [pikamilone] | 99.8% | 98.3% | 98.4% | 95.6% | 99.8% | 107% | 113% | 99.8% | 110% | 94.6% | 106% | 97.4% | 103% | 99.4% | 104% | 102% | 105% | 102% | 102% | 98.4% | > 10 µM | > 10 µM | > 10 µM | > 10 µM | 0 | 0 | 0 | 0 | – | – | – | – | – | – | – |
| CC(C)(Oc1ccc(Cl)cc1)C(=O)N1CSCC1C(=O)O (centres undefined) [timofibrate] | 87.1% | 99.6% | 95.7% | 98.9% | 103% | 99% | 102% | 108% | 96.8% | 113% | 95.5% | 105% | 98.2% | 103% | 104% | 99.5% | 104% | 96% | 94.8% | 105% | > 10 µM | > 10 µM | > 10 µM | > 10 µM | 0 | 0 | 0 | 0 | – | – | – | – | – | – | – |
| Cc1cc(Nc2ncnc3ccc(NC4=NC(C)(C)CO4)cc23)ccc1Oc1ccn2ncnc2c1 [tucatinib] | 98.9% | 103% | 99.8% | 92.5% | 52% | 101% | 96% | 103% | 98.4% | 87.1% | 100% | 104% | 95.3% | 98.2% | 87.9% | 99.4% | 95.8% | 95.1% | 86.9% | 75.6% | – | > 10 µM | > 10 µM | > 10 µM | 3.8 | 0.2 | 0.1 | 2 | 191 nM | 13.7 | 105% | 93.3% | 70.7% | 47.3% | 28.4% |
